From ChEMBL document CHEMBL5370592, “Synthesis and Structure-Activity Relationships of a New Class of Oxadiazoles Targeting DprE1 as Antitubercular Agents” (ACS Med Chem Lett, 2023)
In brackets after ≈: the same amount, converted by molar mass.

How the values were obtained:
Format in all cases: functional
[1] = test system: Mycobacterium tuberculosis; experiment: Antitubercular activity against isonizaid/rifampicin/rifabutin-resistant Mycobacterium tuberculosis NIHA37 assessed as inhibition of bacterial growth incubated for 2 weeks; settings: NIHA37, 336 h
[2] = test system: Mycobacterium tuberculosis; experiment: Antitubercular activity against extensively drug-resistant Mycobacterium tuberculosis NIH1B250 assessed as inhibition of bacterial growth incubated for 2 weeks; settings: NIH1B250, 336 h
[3] = test system: Mycobacterium tuberculosis; experiment: Antitubercular activity against isoniazid/ofloxacin/prothionamide-resistant Mycobacterium tuberculosis NIH1B127 assessed as inhibition of bacterial growth incubated for 2 weeks; settings: NIH1B127, 336 h
[4] = test system: Mycobacterium tuberculosis; experiment: Antitubercular activity against isoniazid/prothionamide-resistant Mycobacterium tuberculosis NIHA38 assessed as inhibition of bacterial growth incubated for 2 weeks; settings: NIHA38, 336 h
[5] = test system: Mycobacterium tuberculosis; experiment: Antitubercular activity against streptomycin/D-cycloserine-resistant Mycobacterium tuberculosis NIH_G169 assessed as inhibition of bacterial growth incubated for 2 weeks; settings: NIH_G169, 336 h
[6] = test system: Mycobacterium tuberculosis; experiment: Antitubercular activity against isonizaid/rifampicin/ethambutol/rifabutin/D-cycloserine-resistant Mycobacterium tuberculosis NIH_G21R assessed as inhibition of bacterial growth incubated for 2 weeks; settings: 336 h
[7] = test system: Mycobacterium tuberculosis; experiment: Antitubercular activity against isoniazid/rifampicin/ethambutol/pyrazinamide/streptomycin/kanamycin/para-aminosalicylic acid/prothionamide-resistant Mycobacterium tuberculosis K33b00MR assessed as inhibition of bacterial growth incubated for 2 weeks; settings: 336 h
[8] = test system: Mycobacterium tuberculosis; experiment: Antitubercular activity against isoniazid/rifampicin/ethambutol/pyrazinamid/rifabutin/prothionamide-resistant Mycobacterium tuberculosis K25b00MR assessed as inhibition of bacterial growth incubated for 2 weeks; settings: 336 h
[9] = test system: Mycobacterium tuberculosis; experiment: Antitubercular activity against isoniazid/prothionamide-resistant Mycobacterium tuberculosis NIHB140 assessed as inhibition of bacterial growth incubated for 2 weeks; settings: NIHB140, 336 h
[10] = test system: Mycobacterium tuberculosis; experiment: Antitubercular activity against isoniazid/rifampicin/ethambutol/streptomycin/D-cycloserine/rifabutin-resistant Mycobacterium tuberculosis NIH_G19R assessed as inhibition of bacterial growth incubated for 2 weeks; settings: 336 h
[11] = test system: Mycobacterium tuberculosis; experiment: Antitubercular activity against isonizaid/rifampicin/streptomycin/ethionamide-resistant Mycobacterium tuberculosis NIH_G79 assessed as inhibition of bacterial growth incubated for 2 weeks; settings: NIH_G79, 336 h
[12] = test system: Mycobacterium tuberculosis; experiment: Antitubercular activity against isoniazid/rifampicin/ethambutol/rifabutin-resistant Mycobacterium tuberculosis K18b01MR assessed as inhibition of bacterial growth incubated for 2 weeks; settings: 336 h
[13] = test system: Mycobacterium tuberculosis; experiment: Antitubercular activity against extensively drug-resistant Mycobacterium tuberculosis 026K111 assessed as inhibition of bacterial growth incubated for 2 weeks; settings: 026K111, 336 h
[14] = test system: Mycobacterium tuberculosis; experiment: Antitubercular activity against isoniazid/rifampicin/ethambutol/streptomycin-resistant Mycobacterium tuberculosis K21b00MR assessed as inhibition of bacterial growth incubated for 2 weeks; settings: 336 h
[15] = test system: Mycobacterium tuberculosis; experiment: Antitubercular activity against isoniazid/rifampicin/ethambutol/pyrazinamid/rifabutin-resistant Mycobacterium tuberculosis K26b00MR assessed as inhibition of bacterial growth incubated for 2 weeks; settings: 336 h
[16] = test system: Mycobacterium tuberculosis; experiment: Antitubercular activity against isoniazid/rifampicin/ethambutol/para-aminosalicylic acid/kanamycin/ofloxacin/prothionamide-resistant Mycobacterium tuberculosis Kb019 assessed as inhibition of bacterial growth incubated for 2 weeks; settings: Kb019, 336 h
[17] = test system: Mycobacterium tuberculosis; experiment: Antitubercular activity against isoniazid/ethionamide/D-cycloserine-resistant Mycobacterium tuberculosis NIH_G17R assessed as inhibition of bacterial growth incubated for 2 weeks; settings: 336 h
[18] = test system: Mycobacterium tuberculosis; experiment: Antitubercular activity against isoniazid/rifampicin/ethambutol/rifabutin-resistant Mycobacterium tuberculosis K22b00MR assessed as inhibition of bacterial growth incubated for 2 weeks; settings: 336 h
[19] = test system: Mycobacterium tuberculosis; experiment: Antitubercular activity against isoniazid/rifampicin/ethambutol/pyrazinamide/streptomycin/kanamycin-resistant Mycobacterium tuberculosis K20b00MR assessed as inhibition of bacterial growth incubated for 2 weeks; settings: 336 h
[20] = test system: Mycobacterium tuberculosis; experiment: Antitubercular activity against extensively drug-resistant Mycobacterium tuberculosis clinical strain 00202293 assessed as inhibition of bacterial growth incubated for 2 weeks; settings: Mycobacterium tuberculosis, 00202293, 336 h
[21] = test system: Mycobacterium tuberculosis; experiment: Antitubercular activity against extensively drug-resistant Mycobacterium tuberculosis NIHB13 assessed as inhibition of bacterial growth incubated for 2 weeks; settings: NIHB13, 336 h
[22] = test system: Mycobacterium tuberculosis; experiment: Antitubercular activity against isoniazid/rifampicin/ethambutol/rifabutin-resistant Mycobacterium tuberculosis NIH_G10R assessed as inhibition of bacterial growth incubated for 2 weeks; settings: 336 h
[23] = test system: Mycobacterium tuberculosis; experiment: Antitubercular activity against isoniazid/ethionamide-resistant Mycobacterium tuberculosis NIH1B21 assessed as inhibition of bacterial growth incubated for 2 weeks; settings: NIH1B21, 336 h
[24] = test system: Mycobacterium tuberculosis; experiment: Antitubercular activity against isonizaid/rifampicin/ethionamide/prothionamide-resistant Mycobacterium tuberculosis NIHA48 assessed as inhibition of bacterial growth incubated for 2 weeks; settings: NIHA48, 336 h
[25] = test system: Mycobacterium tuberculosis; experiment: Antitubercular activity against extensively drug-resistant Mycobacterium tuberculosis clinical strain X37b00XR assessed as inhibition of bacterial growth incubated for 2 weeks; settings: 336 h
[26] = test system: Mycobacterium tuberculosis; experiment: Antitubercular activity against isoniazid/rifampicin/streptomycin/para-aminosalicylic acid/ofloxacin-resistant Mycobacterium tuberculosis K29b00MR assessed as inhibition of bacterial growth incubated for 2 weeks; settings: 336 h
[27] = test system: Mycobacterium tuberculosis; experiment: Antitubercular activity against isoniazid/rifampicin/streptomycin-resistant Mycobacterium tuberculosis clinical strain 01291696 assessed as inhibition of bacterial growth incubated for 2 weeks; settings: Mycobacterium tuberculosis, 01291696, 336 h
[28] = test system: Mycobacterium tuberculosis; experiment: Antitubercular activity against isoniazid/rifampicin/pyrazinamide/prothionamide/rifabutin/ofloxacin/moxifloxacin/levofloxacin-resistant Mycobacterium tuberculosis NIHB188 assessed as inhibition of bacterial growth incubated for 2 weeks; settings: NIHB188, 336 h
[29] = test system: Mycobacterium tuberculosis; experiment: Antitubercular activity against isonizaid/rifampicin/ethambutol/rifabutin-resistant Mycobacterium tuberculosis NIH_G22R assessed as inhibition of bacterial growth incubated for 2 weeks; settings: 336 h
[30] = test system: Mycobacterium tuberculosis; experiment: Antitubercular activity against ethionamide-resistant Mycobacterium tuberculosis NIH_G145 assessed as inhibition of bacterial growth incubated for 2 weeks; settings: NIH_G145, 336 h
[31] = test system: Mycobacterium tuberculosis; experiment: Antitubercular activity against isoniazid/rifampicin/kanamycin/pyrazinamide/capreomycin/amikacin/prothionamide/D-cycloserine-resistant Mycobacterium tuberculosis K32b00MR assessed as inhibition of bacterial growth incubated for 2 weeks; settings: 336 h
[32] = test system: Mycobacterium tuberculosis; experiment: Antitubercular activity against isoniazid/ethambutol/prothionamide/D-cycloserine/ofloxacin/levofloxacin/pyrazinamide-resistant Mycobacterium tuberculosis NIH1B314 assessed as inhibition of bacterial growth incubated for 2 weeks; settings: NIH1B314, 336 h
[33] = test system: Mycobacterium tuberculosis; experiment: Antitubercular activity against rifampicin/isoniazid/streptomycin/prothionamide-resistant Mycobacterium tuberculosis NIHB43 assessed as inhibition of bacterial growth incubated for 2 weeks; settings: NIHB43, 336 h
[34] = test system: Mycobacterium tuberculosis; experiment: Antitubercular activity against isoniazid/rifampicin/ethambutol/pyrazinamide/prothionamide/ofloxacin/levofloxacin/rifabutin-resistant Mycobacterium tuberculosis NIHB270 assessed as inhibition of bacterial growth incubated for 2 weeks; settings: NIHB270, 336 h
[35] = test system: Mycobacterium tuberculosis; experiment: Antitubercular activity against isonizaid/rifampicin/ethambutol/rifabutin-resistant Mycobacterium tuberculosis NIH_G269DR assessed as inhibition of bacterial growth incubated for 2 weeks; settings: 336 h
[36] = test system: Mycobacterium tuberculosis; experiment: Antitubercular activity against isoniazid/rifampicin/para-aminosalicylic acid/ofloxacin/prothionamide-resistant Mycobacterium tuberculosis NIHB67 assessed as inhibition of bacterial growth incubated for 2 weeks; settings: NIHB67, 336 h
[37] = test system: Mycobacterium tuberculosis; experiment: Antitubercular activity against extensively drug-resistant Mycobacterium tuberculosis 028K111 assessed as inhibition of bacterial growth incubated for 2 weeks; settings: 028K111, 336 h
[38] = test system: Mycobacterium tuberculosis; experiment: Antitubercular activity against extensively drug-resistant Mycobacterium tuberculosis NIH1B178 assessed as inhibition of bacterial growth incubated for 2 weeks; settings: NIH1B178, 336 h
[39] = test system: Mycobacterium tuberculosis; experiment: Antitubercular activity against ethambutol/D-cycloserine-resistant Mycobacterium tuberculosis NIH_G11R assessed as inhibition of bacterial growth incubated for 2 weeks; settings: 336 h
[40] = test system: Mycobacterium tuberculosis; experiment: Antitubercular activity against isoniazid/rifampicin/ethambutol/pyrazinamide/rifabutin/prothionamide-resistant Mycobacterium tuberculosis NIHB302 assessed as inhibition of bacterial growth incubated for 2 weeks; settings: NIHB302, 336 h
[41] = test system: Mycobacterium tuberculosis; experiment: Antitubercular activity against isoniazid/rifampicin/moxifloxacin-resistant Mycobacterium tuberculosis NIH_G76MR assessed as inhibition of bacterial growth incubated for 2 weeks; settings: 336 h
[42] = test system: Mycobacterium tuberculosis; experiment: Antitubercular activity against isoniazid/rifampicin/moxifloxacin-resistant Mycobacterium tuberculosis NIH_G367DR assessed as inhibition of bacterial growth incubated for 2 weeks; settings: 336 h
[43] = test system: Mycobacterium tuberculosis; experiment: Antitubercular activity against isoniazid/rifampicin/para-aminosalicylic acid/pyrazinamide/prothionamide/rifabutin-resistant Mycobacterium tuberculosis NIHB68 assessed as inhibition of bacterial growth incubated for 2 weeks; settings: NIHB68, 336 h

Question: What does the source list for `O=C(C1CCN(c2nnc(-c3ccccc3)o2)CC1)N1CCC(Cc2ccccc2)CC1`?
Answer: MIC [1]: 0.39 µM (≈ 0.168 µg/mL); MIC [2]: 2.3 µM (≈ 0.99 µg/mL); MIC [3]: 0.39 µM (≈ 0.168 µg/mL); MIC [4]: 0.39 µM (≈ 0.168 µg/mL); MIC [5]: 0.39 µM (≈ 0.168 µg/mL); MIC [6]: 2.3 µM (≈ 0.99 µg/mL); MIC [7]: 2.3 µM (≈ 0.99 µg/mL); MIC [8]: 1.2 µM (≈ 0.517 µg/mL); MIC [9]: 0.6 µM (≈ 0.258 µg/mL); MIC [10]: 1.56 µM (≈ 0.672 µg/mL); MIC [11]: 1.56 µM (≈ 0.672 µg/mL); MIC [12]: 1.56 µM (≈ 0.672 µg/mL); MIC [13]: 1.56 µM (≈ 0.672 µg/mL); MIC [14]: 1.2 µM (≈ 0.517 µg/mL); MIC [15]: 1.2 µM (≈ 0.517 µg/mL); MIC [16]: 4.7 µM (≈ 2.02 µg/mL); MIC [17]: 0.6 µM (≈ 0.258 µg/mL); MIC [18]: 1.56 µM (≈ 0.672 µg/mL); MIC [19]: 4.7 µM (≈ 2.02 µg/mL); MIC [20]: 1.56 µM (≈ 0.672 µg/mL); MIC [21]: 0.78 µM (≈ 0.336 µg/mL); MIC [22]: 0.6 µM (≈ 0.258 µg/mL); MIC [23]: 1.56 µM (≈ 0.672 µg/mL); MIC [24]: 1.56 µM (≈ 0.672 µg/mL); MIC [25]: 3.13 µM (≈ 1.35 µg/mL); MIC [26]: 1.2 µM (≈ 0.517 µg/mL); MIC [27]: 0.78 µM (≈ 0.336 µg/mL); MIC [28]: 0.6 µM (≈ 0.258 µg/mL); MIC [29]: 1.2 µM (≈ 0.517 µg/mL); MIC [30]: 1.2 µM (≈ 0.517 µg/mL); MIC [31]: 1.56 µM (≈ 0.672 µg/mL); MIC [32]: 3.13 µM (≈ 1.35 µg/mL); MIC [33]: 0.78 µM (≈ 0.336 µg/mL); MIC [34]: 1.56 µM (≈ 0.672 µg/mL); MIC [35]: 1.2 µM (≈ 0.517 µg/mL); MIC [36]: 0.78 µM (≈ 0.336 µg/mL); MIC [37]: 1.56 µM (≈ 0.672 µg/mL); MIC [38]: 0.78 µM (≈ 0.336 µg/mL); MIC [39]: 0.6 µM (≈ 0.258 µg/mL); MIC [40]: 0.78 µM (≈ 0.336 µg/mL); MIC [41]: 1.2 µM (≈ 0.517 µg/mL); MIC [42]: 3.13 µM (≈ 1.35 µg/mL); MIC [43]: 0.39 µM (≈ 0.168 µg/mL)
